Entries after “also recorded” stand apart in the source; their conditions may differ. Read-outs that look alike come from different tables or passages of the source.
Tests used:
[1] = Caco-2 trans-well apparent permeability assay; format: in vitro ADME; details: human, pH 7.4, Caco-2, 5 µM
Experimental: To initially characterize the permeability of BKIs 1294, 1369, and 1318, the software MedChem Designer (Simulations +, Lancaster, CA) was used to predict the Peff. The in vitro apparent permeability (Papp) was carried out by Absorption Systems LP (Exton, PA) with a Caco-2 trans-well assay. Caco-2 cells (clone C2BBe1) were obtained from American Type Culture Collection (Manassas, VA) were grown to confluence on collagen-coated, microporous membranes in 12-well assay plates. The permeability assay buffer was Hanks’ balanced salt solution (HBSS) containing 10 mM HEPES and 15 mM glucose at a pH of 7.4. The buffer in the receiver chamber also contained 1% bovine serum albumin. The dosing solution concentration was 5 µM BKI in assay buffer, and the cell monolayers were dosed on the apical side (A?B) or basolateral side (B?A) and incubated at 37°C with 5% CO2 in a humidified incubator. After 120 minutes, samples were taken from the donor and receiver chambers in duplicate. The Papp was calculated with equation (1) and the percent recovery with equation (2).
Papp = (dCr/dt) × Vr/(A × CA) (1)
Percent Recovery = 100 × ((Vr × Cr^final) + (Vd × Cd^final))/(Vd × […]) (2)
where dCr/dt is the slope of the cumulative concentration in the receiver compartment versus time in µM s^-1; Vr is the volume of the receiver compartment in cm^3; Vd is the volume of the donor compartment in cm^3; A is the area of the insert (1.13 cm^2 for 12-well); CA is the average of the nominal dosing concentration and the measured 120 minute donor concentration in µM; CN is the nominal concentration of the dosing solution in µM; Cr^final is the cumulative receiver concentration in µM at the end of the incubation period; Cd^final is the concentration of the donor in µM at the end of the incubation period.
(§1) To ensure no damage was inflicted to the cell monolayers during the flux period, lucifer yellow flux was also measured post-experimentally for each monolayer. To determine whether BKIs 1294, 1369, and 1318 were substrates of P-gp in vitro, P-gp efflux was characterized using the Caco-2 permeability assay protocol with a few modifications. The dosing solution concentration was 5 μM of BKI in the assay buffer +/- 1 μM valspodar. Cells were first pre-incubated for 30 minutes with HBSS containing +/- 1 μM valspodar. Cell monolayers were dosed on the apical side (A?B) or basolateral side (B?A), and incubated at 37°C with 5% CO2 in a humidified incubator. Samples were taken from the donor and receiver chambers at 120 minutes. Each determination was performed in duplicate.

P-gp = target: T1, P-gp (Homo sapiens, UniProt P08183); assay: Caco-2 P-gp efflux assay +/- valspodar; format: in vitro ADME; details: for P-gp Substrate Classification: Caco-2
T1 construct: endogenous in cells; host or cells: Caco-2 cells (clone C2BBe1, ATCC); assay run by Absorption Systems LP
T1 sequence (P08183 whole entry): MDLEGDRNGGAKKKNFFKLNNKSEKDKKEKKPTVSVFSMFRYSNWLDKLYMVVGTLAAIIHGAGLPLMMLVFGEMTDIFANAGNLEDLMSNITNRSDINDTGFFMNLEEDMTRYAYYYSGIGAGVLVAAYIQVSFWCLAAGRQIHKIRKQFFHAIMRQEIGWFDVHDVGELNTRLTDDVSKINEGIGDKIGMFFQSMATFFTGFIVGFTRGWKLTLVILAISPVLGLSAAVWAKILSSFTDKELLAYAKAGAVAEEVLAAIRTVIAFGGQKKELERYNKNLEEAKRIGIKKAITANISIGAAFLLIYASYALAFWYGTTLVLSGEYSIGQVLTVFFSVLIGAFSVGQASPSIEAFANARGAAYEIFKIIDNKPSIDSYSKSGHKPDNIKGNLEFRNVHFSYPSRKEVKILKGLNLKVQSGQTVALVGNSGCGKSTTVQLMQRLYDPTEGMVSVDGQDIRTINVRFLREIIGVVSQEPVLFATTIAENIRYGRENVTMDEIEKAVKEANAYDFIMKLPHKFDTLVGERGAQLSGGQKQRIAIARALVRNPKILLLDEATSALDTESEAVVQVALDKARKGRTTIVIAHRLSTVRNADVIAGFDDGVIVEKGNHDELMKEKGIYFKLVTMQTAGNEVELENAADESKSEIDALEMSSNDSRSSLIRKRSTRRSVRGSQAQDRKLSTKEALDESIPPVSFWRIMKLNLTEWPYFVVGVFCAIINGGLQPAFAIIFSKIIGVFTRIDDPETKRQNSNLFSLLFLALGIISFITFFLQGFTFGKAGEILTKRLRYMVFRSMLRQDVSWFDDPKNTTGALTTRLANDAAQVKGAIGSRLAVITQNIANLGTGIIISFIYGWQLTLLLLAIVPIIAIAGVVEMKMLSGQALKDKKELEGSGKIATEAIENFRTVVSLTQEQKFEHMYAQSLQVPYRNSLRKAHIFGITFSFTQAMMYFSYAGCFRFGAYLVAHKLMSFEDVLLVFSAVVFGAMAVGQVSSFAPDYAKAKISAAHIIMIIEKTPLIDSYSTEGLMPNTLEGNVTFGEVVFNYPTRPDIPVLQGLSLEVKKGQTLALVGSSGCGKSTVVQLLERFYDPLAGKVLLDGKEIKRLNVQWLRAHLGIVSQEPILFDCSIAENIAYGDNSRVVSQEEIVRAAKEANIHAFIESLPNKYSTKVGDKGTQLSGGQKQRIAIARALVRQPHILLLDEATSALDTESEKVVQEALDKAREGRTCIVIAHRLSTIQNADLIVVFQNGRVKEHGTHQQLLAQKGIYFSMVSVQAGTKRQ
Description: Given the well-known role of P-gp in the efflux of many diverse drugs, the adenosine triphosphate–binding cassette (ABC) transporter was specifically chosen for initial studies, to identify the transporter responsible for BKI1318’s relatively low Papp. A Caco-2 system with overexpression of P-gp was used to verify the role of P-gp in BKI1318 transport (Supplementary Table 2). […] It should be noted that this experiment characterized the importance of P-gp with a single concentration of BKI1318. The kinetics of BKI1318 transport mediated by P-gp are still unknown, and it is not clear how the fraction of absorption mediated by P-gp transport will change with different concentrations of BKI1318.
as §1

[2] = Mouse oral plasma pharmacokinetics with or without elacridar; format: in vivo, mice; details: for AUC(0-inf) / Cmax / Tmax: mouse, plasma, po, mouse plasma, oral, 1369 60 mg/kg, 1318 50 mg/kg
Experimental: Mouse oral pharmacokinetic (PK) studies were performed as previously described^1. Briefly, blood samples were taken by tail bleeding into heparinized tubes at designated time points and centrifuged to obtain plasma. The samples were frozen and stored at -20°C until extraction and analysis. PK calculations of Tmax, Cmax, AUC, oral clearance, and half-life were performed using Pharsight Phoenix WinNonlin software (Certara, St. Louis, MO).

C. parvum = assay: IFN-γ KO mouse model of Cryptosporidium infection; format: in vivo, mice; details: for Effect of elacridar coadministration on in vivo efficacy: IFN-γ KO mice, once daily for 5 days
Experimental: Efficacy in female IFN-γ KO mice (B6.129S7-Ifngtm1Ts/J; Jackson Laboratories) aged 8–10 weeks was evaluated as previously described. Beginning on day 6 after infection, mice were dosed with 30 mg/kg BKI1318 suspended in 0.2 mL of vehicle, 15 mg/kg elacridar in 0.1 mL of vehicle followed 15 minutes later by 30 mg/kg BKI1318 in 0.1 mL of vehicle, or 0.2 mL of vehicle only once daily for 5 days. Fecal specimens were collected daily from each group and weighed. Each fecal sample was checked for luminescence on the day of collection, and the number of relative light units was determined and normalized to fecal sample weights.

[3] = mice, 50 mg/kg oral, 30 mg/kg elacridar, P < .05
[4] = 30 mg/kg elacridar 15 minutes before, read-out: AUC0-inf w/ Elacridar
[5] = 30 mg/kg elacridar 15 minutes before, read-out: Cmax w/ Elacridar
[6] = 30 mg/kg elacridar 15 minutes before, read-out: Tmax w/ Elacridar

Row | SMILES | efflux ratio at 120 min, 5 µM [1] | Papp A→B at 120 min, 5 µM [1] [×10⁻⁶ cm/s] | Papp B→A at 120 min, 5 µM [1] [×10⁻⁶ cm/s] | P-gp Substrate Classification (P-gp) | efflux ratio at 120 min, 5 µM (P-gp; human, pH 7.4, Caco-2 with overexpression of P-gp, 5 μM, no inhibitor) | Oral clearance with elacridar, fold greater than observed for BKI1369 ([2]; mice) [fold] | Oral clearance (clearance/bioavailability) with elacridar coadministration ([2]; mice, 50 mg/kg oral, 30 mg/kg elacridar) [mL/h] | Increase of plasma AUC0–∞ by elacridar coadministration [2, 3] | Increase of plasma Cmax by elacridar coadministration [2, 3] | AUC(0-inf) [2, 4] [µM·h] | Cmax [2, 5] [nM] | Tmax [2, 6] [h] | AUC(0-inf) ([2]; alone, read-out: AUC0-inf) [µM·h] | Cmax ([2]; alone, read-out: Cmax) [nM] | Tmax ([2]; alone, read-out: Tmax) [h] | Reduction in C. parvum oocyst excretion (C. parvum; 60 mg/kg once daily for 5 days, without elacridar) [log] | Effect of elacridar coadministration on in vivo efficacy (C. parvum) | Change in plasma pharmacokinetics when elacridar administered before ([2]; mice, 60 mg/kg oral, 30 mg/kg elacridar)
1 | CCOc1ccc2cc(-c3nn(CC4CCNCC4)c4ncnc(N)c34)ccc2n1 [BKI1318] | 69 | 0.29 | 20.3 | Positive | 19 | 5 | 207 | approximately 2 fold | approximately 2 fold | 12 ± 1.6 | 1800 | 2 | 6.6 ± 1.7 | 1000 | 2.3 | < 1 | increased the level by which BKI1318 reduced the Cryptosporidium burden; also recorded: improvement in efficacy | –
2 | CCOc1ccc2cc(-c3nn(CC4CCN(C)CC4)c4ncnc(N)c34)ccc2n1 [BKI1369] | – | 12.4 | 32.7 | Negative | – | – | – | – | – | 91.4 ± 5 | 4100 ± 300 | 4 ± 1.6 | 75.6 ± 8.9 | 4200 | 2 | – | no effect; also recorded: did not affect | not a significant change; also recorded: not significantly different
